Key:
ovine COX-1 = molecular target: T1, ovine COX-1 (Ovis aries, UniProt P05979); assay: Cyclooxygenase inhibition assay (COX Fluorescent Inhibitor Screening Assay Kit), COX-1; assay type: biochemical
T1 construct: purchased Cayman Chemical 700100
T1 sequence (P05979 25-600): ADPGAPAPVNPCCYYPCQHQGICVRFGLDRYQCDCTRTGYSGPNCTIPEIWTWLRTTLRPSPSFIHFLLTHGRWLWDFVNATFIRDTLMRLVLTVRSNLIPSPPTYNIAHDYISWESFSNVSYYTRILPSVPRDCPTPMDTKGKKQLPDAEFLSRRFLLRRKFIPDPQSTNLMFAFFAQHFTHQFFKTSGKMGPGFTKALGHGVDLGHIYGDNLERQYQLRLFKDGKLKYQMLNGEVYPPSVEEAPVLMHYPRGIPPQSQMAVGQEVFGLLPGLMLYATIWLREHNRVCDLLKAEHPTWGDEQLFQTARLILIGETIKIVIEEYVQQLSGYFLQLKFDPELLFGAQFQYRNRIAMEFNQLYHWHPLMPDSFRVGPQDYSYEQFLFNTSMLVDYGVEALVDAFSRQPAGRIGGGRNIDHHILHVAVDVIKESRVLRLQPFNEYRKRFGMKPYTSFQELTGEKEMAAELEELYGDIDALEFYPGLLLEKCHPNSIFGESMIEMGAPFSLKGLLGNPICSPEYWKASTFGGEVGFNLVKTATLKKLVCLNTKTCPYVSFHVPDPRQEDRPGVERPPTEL
Method: (§1) Stock solutions of test compounds are dissolved in a minimum volume of DMSO. 10 μl of various concentrations of the test compound solutions, e.g., [I]final between 0.01 and 100 μM, are added to a series of supplied reaction buffer solutions (150 μl, 100 mM Tris-HCl, pH 8.0) with either COX-1 or COX-2 (10 μl) enzyme in the presence of Heme (10 μl) and a fluorometric substrate (10 μl). The reactions are initiated by quickly adding 10 μl of arachidonic acid solution and then incubating the system for two minutes at room temperature. […] The intensity of this fluorescence is proportional to the amount of resorufin, which is proportional to the amount of PGG2 present in the well during the incubation. Percent inhibition is calculated by comparison from the 100% initial activity sample value (no inhibitor).
as §1, with “compounds were” for “compounds are”, “μM, were” for “μM, are”, “reactions were” for “reactions are”, “then incubated” for “then incubating the system”, “inhibition was” for “inhibition is”

[1] = Pharmacokinetics in mice by oral cassette dosing; assay type: in vivo; settings: oral cassette dosing at 5 mg/kg, blood
Method: All the animal experiments were performed according to protocols approved by the Animal Use and Care Committee of University of California, Davis. […] Each cassette was orally administered to 4 mice at a dose of 5 mg/kg in 120-150 μl of vehicle depending on animal weight. […] The instrument was equipped with a linear ion trap and a Turbo V ion source and was operated in negative ion MRM mode. […] This was maintained for 3 min, then the gradient was returned to 30% solvent B in 2 min. The flow rate was 0.4 mL/min. The injection volume was 10 μL and the samples were kept at 4° C. in the auto sampler.

HepG2 cells = assay: HepG2 cell viability analysis (MTT); assay type: cell-based
Method: Cells were plated at 10,000 cell per well in 96-well plates and allowed to attach overnight under the growth conditions described above. […] These compounds were dissolved in 100% DMSO and diluted with EMEM to the desired concentration of 0.1 μM, 1.0 μM, 10 μM, 25 μM, and 50 μM, with a final DMSO concentration of 0.1% for all cell-based in vitro studies. All studies included DMSO as a solvent control. Cell viability was determined using the MTT Cell Viability Assay Kit from ATCC according to manufacturer's instructions. The 96-well plates were measure at 570 nm using SpectroMax 190 plate reader (Molecular Devices, Sunnyvale, Calif.). […] Each concentration was performed in triplicate per 96-well plate and EC50 data are presented as the mean±standard deviation from at least 3 separate experiments performed on separate days.

[2] = tested on: MMP activity in PC-3 cells; assay: Matrix metalloproteinase (MMP) assay by zymography, PC-3 cells; assay type: cell-based; settings: FIG. 17 left
Method: (§2) MMP activity in PC-3 and HUVEC cells were carried out by zymography (J Vis Exp, e2445). […] After that, the gels were incubated at renaturing buffer for 30 min, followed with incubation at zymography developing buffer for 30 min at room temperature, and replaced with fresh developing buffer and incubated at 37° C. overnight. The gels were stained by Coomassie blue, and images were recorded and analyzed by NIH Image J software.

[3] = tested on: MMP activity in HUVEC cells; assay: Matrix metalloproteinase (MMP) assay by zymography, HUVEC cells; assay type: cell-based, human; settings: FIG. 17 right
Method: as §2

5-LOX = molecular target: T2, 5-LOX (Homo sapiens, UniProt P09917); assay: Potency against 5-LOX; assay type: biochemical; settings: compared with celecoxib
T2 sequence (P09917 1-674): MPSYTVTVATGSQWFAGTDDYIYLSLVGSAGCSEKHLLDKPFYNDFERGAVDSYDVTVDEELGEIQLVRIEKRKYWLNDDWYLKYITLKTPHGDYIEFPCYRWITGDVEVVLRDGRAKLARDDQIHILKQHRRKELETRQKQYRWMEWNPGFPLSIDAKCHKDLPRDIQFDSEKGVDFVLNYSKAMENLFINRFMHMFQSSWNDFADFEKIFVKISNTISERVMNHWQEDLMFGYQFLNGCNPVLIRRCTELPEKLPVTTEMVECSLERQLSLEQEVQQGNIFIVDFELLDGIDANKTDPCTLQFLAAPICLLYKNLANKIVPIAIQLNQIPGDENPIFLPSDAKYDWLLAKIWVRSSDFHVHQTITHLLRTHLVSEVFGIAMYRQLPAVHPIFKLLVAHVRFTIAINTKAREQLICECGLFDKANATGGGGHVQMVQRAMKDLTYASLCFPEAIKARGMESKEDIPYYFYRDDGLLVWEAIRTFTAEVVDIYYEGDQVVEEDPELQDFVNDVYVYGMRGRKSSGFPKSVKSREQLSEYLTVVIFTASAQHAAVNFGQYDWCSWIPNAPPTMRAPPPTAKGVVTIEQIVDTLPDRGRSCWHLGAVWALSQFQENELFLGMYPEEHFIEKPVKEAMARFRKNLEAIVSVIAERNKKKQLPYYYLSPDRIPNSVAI

[4] = Pharmacokinetics in rats by oral administration
[5] = 21i in comparison with 21j, rats oral 1 mg/kg
[6] = rats, oral administration at 1 mg/kg (n = 4), blood

NS(=O)(=O)c1ccc(-n2nc(CCCNC(=O)Nc3ccc(C(F)(F)F)cc3)cc2-c2ccccc2)cc1 [Compound 21i, 4-(5-Phenyl-3-{3-[3-(4-trifluoromethyl-phenyl)-ureido]-propyl}-pyrazol-1-yl)-benzenesulfonamide]
IC50 (ovine COX-1): > 100 µM
inhibition at 100 µM (ovine COX-1; read-out: COX-1 (% inhibition)): 22.7%
AUC [1]: 980 nM·h
Cmax [1]: 260 nM
Tmax [1]: 48 min
t1/2 [1]: 2.6 h
EC50 (HepG2 cells; Homo sapiens, HepG2, MTT after 24 hours of incubation): 4.5 ± 0.5 µM
Effect on HepG2 cell viability (killing cancer cells), in words (HepG2 cells; dose dependence, FIG. 9): more efficient than Celecoxib in combination or not with t-TUCB in killing the cancer cells
MMP activity, in words [2]: no effect on MMP activity
MMP activity, in words [3]: no effect on MMP activity
Potency against 5-LOX, in words (5-LOX): comparable with celecoxib
Higher AUC in rats [4, 5]: 2 fold
Higher Cmax in rats [4, 5]: 2 fold
AUC [4, 6]: 2764 ± 804 nM·h
Cmax [4, 6]: 415 ± 139 nM
Tmax [4, 6]: 1.5 ± 0.6 h
t1/2 [4, 6]: 12.9 ± 3.8 h
